One test concerns HCT-116. Kind of test: HCT-116 cell growth. In kind it is cell-based. The settings on record: HCT-116, mutant KRAS driven, WT BRAF.
Test [1] deals with T1, BRAF class III mutation G466V (Homo sapiens, UniProt P15056, G466V).
T1 construct: cells endogenously expressing the Class III mutation G466V; host or cells: H1666
Kind of test: Western blot of H1666 cells endogenously expressing G466V. The settings on record: 24 hours. Format: cell-based. Background: A western blot detects proteins with antibodies after separation by electrophoresis.

The target of a further test is T2, p61 splice variant (Homo sapiens, UniProt P15056+Q96SW2, DEL169-380/V600E).
T2 construct: host or cells: HEK-293T, lentiviral expression
T2 sequence (P15056 with tags, fused parts or gaps DEL169-380/V600E): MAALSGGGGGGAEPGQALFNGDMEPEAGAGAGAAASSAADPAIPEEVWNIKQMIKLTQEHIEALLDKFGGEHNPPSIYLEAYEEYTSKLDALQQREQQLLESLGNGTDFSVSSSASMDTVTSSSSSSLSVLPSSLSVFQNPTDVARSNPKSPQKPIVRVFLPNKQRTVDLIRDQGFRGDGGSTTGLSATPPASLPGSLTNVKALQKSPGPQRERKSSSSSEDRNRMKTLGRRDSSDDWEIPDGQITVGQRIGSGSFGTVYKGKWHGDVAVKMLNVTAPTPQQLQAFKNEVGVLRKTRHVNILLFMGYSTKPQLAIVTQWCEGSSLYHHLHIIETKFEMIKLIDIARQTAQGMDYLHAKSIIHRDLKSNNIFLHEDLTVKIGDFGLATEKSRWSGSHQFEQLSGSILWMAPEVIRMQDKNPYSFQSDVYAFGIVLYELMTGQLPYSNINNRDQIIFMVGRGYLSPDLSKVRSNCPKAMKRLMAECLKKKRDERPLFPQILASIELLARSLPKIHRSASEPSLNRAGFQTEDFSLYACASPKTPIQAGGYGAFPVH
T2 sequence (Q96SW2 whole entry, stated change not applied, canonical isoform): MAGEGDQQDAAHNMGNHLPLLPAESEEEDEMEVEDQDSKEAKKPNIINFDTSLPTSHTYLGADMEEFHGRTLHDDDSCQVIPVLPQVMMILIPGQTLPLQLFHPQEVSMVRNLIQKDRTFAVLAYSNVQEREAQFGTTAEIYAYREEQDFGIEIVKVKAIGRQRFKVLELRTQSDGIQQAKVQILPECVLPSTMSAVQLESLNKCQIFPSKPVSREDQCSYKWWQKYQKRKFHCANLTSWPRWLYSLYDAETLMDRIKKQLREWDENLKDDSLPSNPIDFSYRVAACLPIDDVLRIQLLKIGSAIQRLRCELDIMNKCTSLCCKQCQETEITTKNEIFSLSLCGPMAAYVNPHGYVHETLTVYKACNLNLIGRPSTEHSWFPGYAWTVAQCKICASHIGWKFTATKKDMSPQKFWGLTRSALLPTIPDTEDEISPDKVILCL
T2 sequence (Q16531 whole entry partner, canonical isoform): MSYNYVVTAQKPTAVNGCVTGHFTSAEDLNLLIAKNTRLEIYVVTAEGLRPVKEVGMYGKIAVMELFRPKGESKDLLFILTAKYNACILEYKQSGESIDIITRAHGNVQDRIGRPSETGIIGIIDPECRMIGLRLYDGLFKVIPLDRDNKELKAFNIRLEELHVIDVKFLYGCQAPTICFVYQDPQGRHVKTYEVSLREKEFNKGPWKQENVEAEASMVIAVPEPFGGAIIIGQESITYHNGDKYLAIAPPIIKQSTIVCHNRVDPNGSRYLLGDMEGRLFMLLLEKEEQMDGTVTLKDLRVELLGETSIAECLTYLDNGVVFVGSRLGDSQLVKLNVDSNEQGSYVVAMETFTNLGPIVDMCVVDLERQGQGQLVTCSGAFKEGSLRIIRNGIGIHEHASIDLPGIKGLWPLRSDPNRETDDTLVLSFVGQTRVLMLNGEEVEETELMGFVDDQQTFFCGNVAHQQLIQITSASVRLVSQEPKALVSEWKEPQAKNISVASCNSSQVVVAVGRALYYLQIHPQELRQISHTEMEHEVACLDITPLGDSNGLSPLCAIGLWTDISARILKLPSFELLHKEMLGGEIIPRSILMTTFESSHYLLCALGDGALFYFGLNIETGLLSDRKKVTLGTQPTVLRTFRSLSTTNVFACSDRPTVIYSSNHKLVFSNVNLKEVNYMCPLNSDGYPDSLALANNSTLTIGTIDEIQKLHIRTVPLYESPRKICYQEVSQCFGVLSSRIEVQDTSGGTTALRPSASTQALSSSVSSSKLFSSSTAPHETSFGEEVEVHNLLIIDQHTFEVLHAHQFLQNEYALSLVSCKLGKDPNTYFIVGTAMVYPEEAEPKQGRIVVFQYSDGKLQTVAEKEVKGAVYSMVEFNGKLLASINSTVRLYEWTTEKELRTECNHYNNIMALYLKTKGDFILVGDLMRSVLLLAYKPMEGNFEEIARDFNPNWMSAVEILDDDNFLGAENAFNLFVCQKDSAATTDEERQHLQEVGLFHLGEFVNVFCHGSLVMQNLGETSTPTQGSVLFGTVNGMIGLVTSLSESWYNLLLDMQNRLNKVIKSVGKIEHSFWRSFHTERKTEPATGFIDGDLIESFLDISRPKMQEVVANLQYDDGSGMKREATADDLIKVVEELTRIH
The test can be described thus: Western blot of engineered HEK-293T cells expressing the p61 splice variant. In kind it is cell-based. Particulars: lentivirus expression.

The next test concerns the target RAF1 (a.k.a CRAF) (Homo sapiens, UniProt P04049). Kind of test: Global proteomics profiling, JURKAT cells. Format: cell-based. More on the design: endogenous in cells; host or cells: JURKAT, ATCC TIB-152 (A12.2). The settings on record: 300 nM, 24 hours. On the procedure:
Each cell line was treated in duplicate with either DMSO or Compound 157 (final concentration 300 nM) for 24 hours in an incubator at 37° C. with 5% CO2. After the 24-hour incubation, cells were harvested, washed twice with PBS, and snap frozen in liquid nitrogen. Samples were re-suspended in lysis buffer [8 M urea, 50 mM HEPES (pH 8.5), 50 mM NaCl, 1× protease inhibitor cocktail] and lysed by sonication at 4° C. with 85% amplitude in a pulse setting with 30 seconds on and 30 seconds off for a total sonication time of 5 minutes. Lysates were centrifuged at maximum speed for 10 minutes at 4° C. and the supernatant collected, reduced for 1 hour at room temperature with 5 mM TCEP, and the cysteine residues were then alkylated with 15 mM iodoacetamide (room temperature, in dark, 30 minutes). Protein content was extracted by methanol-chloroform precipitation and subsequent ice-cold acetone washes. Protein pellets were resuspended in 8 M urea, 50 mM HEPES (pH 8.5) buffer and protein concentrations were measured by BCA assay. […]
For peptide tandem mass tag (TMT) labeling, 100 μg of peptides per sample was prepared at […] concentration in 200 mM HEPES (pH 8.5), 30% acetonitrile (ACN) and each the specific TMT reagent. […] TMT reporter ion intensities were quantified by extracting the signal-to-noise ratio for each. […]

Test [2] deals with BRAF V600E, test compound and CRBN ternary complex (Homo sapiens, UniProt P15056+Q96SW2, V600E). Kind of test: AlphaLISA ternary complex formation assay. In kind it is binding. Particulars: GST-BRAF V600E 16 nM, His-CRBN 64 nM. On the procedure: Formation of the ternary complex between BRAF V600E, test compound and CRBN was quantified using AlphaLISA® assay. GST-tagged BRAF V600E and His-tagged CRBN were labeled with a donor/acceptor AlphaLISA® pair, and complex formation was monitored via a change in the Alpha-signal. Signal from the control wells was used as a normalization control.
Chain of BRAF V600E, test compound and CRBN ternary complex (P15056 whole entry V600E): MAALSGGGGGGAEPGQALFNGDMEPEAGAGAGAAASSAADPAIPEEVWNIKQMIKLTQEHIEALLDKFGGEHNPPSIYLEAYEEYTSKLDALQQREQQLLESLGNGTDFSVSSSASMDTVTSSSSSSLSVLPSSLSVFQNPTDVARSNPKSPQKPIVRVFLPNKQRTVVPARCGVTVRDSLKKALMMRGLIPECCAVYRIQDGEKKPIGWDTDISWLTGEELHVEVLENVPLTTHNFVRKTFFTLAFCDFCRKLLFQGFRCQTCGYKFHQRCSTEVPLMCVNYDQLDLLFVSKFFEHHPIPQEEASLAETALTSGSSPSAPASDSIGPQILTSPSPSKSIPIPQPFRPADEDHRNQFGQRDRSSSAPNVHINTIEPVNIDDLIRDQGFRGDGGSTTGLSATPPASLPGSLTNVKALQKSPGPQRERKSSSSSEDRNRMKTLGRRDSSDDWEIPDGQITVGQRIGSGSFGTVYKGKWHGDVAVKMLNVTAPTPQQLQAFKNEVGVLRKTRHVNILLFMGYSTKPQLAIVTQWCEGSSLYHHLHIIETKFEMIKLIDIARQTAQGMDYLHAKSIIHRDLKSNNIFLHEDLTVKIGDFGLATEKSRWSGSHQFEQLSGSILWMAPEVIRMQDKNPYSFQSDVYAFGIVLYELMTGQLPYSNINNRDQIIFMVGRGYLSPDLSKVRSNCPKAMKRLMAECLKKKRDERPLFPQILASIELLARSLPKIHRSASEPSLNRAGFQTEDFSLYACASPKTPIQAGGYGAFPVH
Chain of BRAF V600E, test compound and CRBN ternary complex (Q96SW2 whole entry): as the sequence (Q96SW2 whole entry, stated change not applied, canonical isoform) above
Characterization of the ternary complex formation between GST-BRAF V600E, Compound 157 and his-CRBN was carried out using an AlphaLISA® assay. Compounds were dispensed from serially diluted DMSO stock in low dead volume plates into gray 384-well AlphaPlates using acoustic technology to 1% of total reaction volume. Compounds were arranged vertically in rows A through P. Concentration series were horizontal: columns 1-11, and then duplicates in columns 12-22.
Excitation of the donor beads results in generation of singlet oxygen molecules. […]
A 10 μL mixture containing 16 nM of BRAF V600E and 64 nM of CRBN in 50 mM HEPES (pH 7.4), 200 mM NaCl, 1 mM TCEP, 0.05% Pluronic Acid, 0.1% BSA was added to the wells containing test compounds (columns 1-22) and the negative control wells (column 23). […] Plates were then read on an Envision plate reader with an appropriate AlphaLISA® filter set.
(Alpha assays give light when donor and acceptor beads are brought close together.)

Entries after “also recorded” stand apart in the source; their conditions may differ.

T1 sequence (P15056 2-766 G466V): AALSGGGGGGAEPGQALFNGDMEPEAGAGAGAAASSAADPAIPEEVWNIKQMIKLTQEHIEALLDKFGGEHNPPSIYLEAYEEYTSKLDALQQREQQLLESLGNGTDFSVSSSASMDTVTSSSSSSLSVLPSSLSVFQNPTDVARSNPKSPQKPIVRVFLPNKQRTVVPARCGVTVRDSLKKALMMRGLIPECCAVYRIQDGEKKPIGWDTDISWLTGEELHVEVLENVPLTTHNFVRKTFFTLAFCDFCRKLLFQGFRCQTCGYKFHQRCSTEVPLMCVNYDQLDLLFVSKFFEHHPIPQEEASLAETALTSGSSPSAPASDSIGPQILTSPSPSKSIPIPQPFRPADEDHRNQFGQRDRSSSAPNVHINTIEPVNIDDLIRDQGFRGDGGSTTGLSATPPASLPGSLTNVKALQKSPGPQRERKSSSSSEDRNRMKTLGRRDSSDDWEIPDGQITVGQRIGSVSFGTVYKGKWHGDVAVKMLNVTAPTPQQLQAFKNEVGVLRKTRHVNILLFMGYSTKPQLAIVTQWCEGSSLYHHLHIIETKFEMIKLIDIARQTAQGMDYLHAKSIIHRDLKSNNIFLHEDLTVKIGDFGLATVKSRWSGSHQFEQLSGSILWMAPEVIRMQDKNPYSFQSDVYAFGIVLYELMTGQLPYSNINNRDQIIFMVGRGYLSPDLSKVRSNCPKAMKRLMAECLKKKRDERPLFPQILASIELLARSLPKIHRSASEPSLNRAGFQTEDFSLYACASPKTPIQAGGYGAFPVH
Chain of RAF1 (a.k.a CRAF) (P04049 whole entry): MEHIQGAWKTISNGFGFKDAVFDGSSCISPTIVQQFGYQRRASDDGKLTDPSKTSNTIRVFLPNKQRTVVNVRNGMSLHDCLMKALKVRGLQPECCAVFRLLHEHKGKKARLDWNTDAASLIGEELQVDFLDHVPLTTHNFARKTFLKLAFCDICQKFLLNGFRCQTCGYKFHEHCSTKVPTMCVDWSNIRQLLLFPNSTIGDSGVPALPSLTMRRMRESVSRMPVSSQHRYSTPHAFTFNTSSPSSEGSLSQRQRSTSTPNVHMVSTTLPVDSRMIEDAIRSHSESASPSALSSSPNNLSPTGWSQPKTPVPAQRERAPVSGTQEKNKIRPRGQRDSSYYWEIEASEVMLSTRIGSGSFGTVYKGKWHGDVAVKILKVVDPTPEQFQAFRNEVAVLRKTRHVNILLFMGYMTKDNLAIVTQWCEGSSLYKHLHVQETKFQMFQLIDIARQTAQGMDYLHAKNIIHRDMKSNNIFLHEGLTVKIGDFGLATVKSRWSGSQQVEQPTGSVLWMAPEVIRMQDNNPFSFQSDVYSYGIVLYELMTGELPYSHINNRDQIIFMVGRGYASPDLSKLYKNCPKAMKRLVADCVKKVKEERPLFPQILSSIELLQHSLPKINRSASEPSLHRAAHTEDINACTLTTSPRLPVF

Regarding `CCN(C)S(=O)(=O)Nc1ccc(F)c(Oc2ccc3ncn([C@H]4COC5(CCN(C(=O)CC6(O)CCN(c7cc8c(cc7F)c(N7CCC(=O)NC7=O)nn8C)CC6)CC5)C4)c(=O)c3c2)c1C#N` [Compound 157, (3R)-3-[6-[2-cyano-3-[[ethyl(methyl)sulfamoyl]amino]-6-fluorophenoxy]-4-oxoquinazolin-3-yl]-8-[2-[1-[3-(2,4-dioxo-1,3-diazinan-1-yl)-5-fluoro-1-methylindazol-6-yl]-4-hydroxypiperidin-4-yl]acetyl]-1-oxa-8-azaspiro[4.5]decane], the “effect on cell growth” value with HCT-116 is listed as “no effect; also recorded: no impact on cell growth”. In addition, the “phosphorylated ERK signal” value in test [1] is recorded as “decrease”. Besides, the “reduction in BRAF signal” value in test [1] (includes any WT BRAF) was 53%. Moreover, at p61 splice variant, the “degradation of p61 splice variant” value is reported as “capable of degrading”. Also, on RAF1 (a.k.a CRAF), the “RAF1 (CRAF) protein level change” value was “unchanged”. Further, the “Ternary complex formation (concentration dependence)” value in test [2] is “characteristic bell-shaped curve”.

Source of the values: patent US12486253B2, “Therapeutics for the degradation of mutant BRAF” (C4 THERAPEUTICS, INC., priority 2021, dated 2025).
